Results published in patent US12544372B2, “Methods of treating rheumatoid arthritis, chronic spontaneous urticaria, and systemic lupus erythematosis using an inhibitor of Bruton's tyrosine kinase” (Genentech, Inc., priority 2019, dated 2026).
Marks after values point to notes of the source that are not given here.

Key:
Assay type in all cases: in vivo, human
CD19+ B cells = test: SLE study biomarker: CD19+ B cells
Protocol: The following biomarkers were explored according to the biomarker objectives provided above in the Study Objectives. In Table 13, biomarkers are measured at baseline and subsequent timepoints during and after treatment. One set of biomarkers evaluated is the plasmablast signature. Plasmablasts are rapidly dividing, short-lived antibody secreting cells. While they represent a small proportion of B cells in the blood, they are responsible for a majority of antibody transcripts found in whole blood mRNA. The plasmablast signature comprises the biomarkers IgJ, Mzbl, and Txndc5. The gene expression of IgJ, Mzbl, and Txndc5 may be measured, for example, a polypeptide expression by evaluating the level of mRNA for said gene in a patient's blood relative to a reference level.

[1] = test system: patients with moderate to severe active rheumatoid arthritis; test: Phase II RA study, Cohort 1 (inadequate response to MTX): clinical efficacy (ACR50, DAS28-3-CRP); conditions: for DAS 28-3 (CRP) Adjusted Mean / DAS 28-3 (CRP) Difference (d): Week 12; for ACR50 Responders / ACR50 Weighted Difference vs Placebo: Week 12 Day 84; for DAS 28-3 (CRP) Difference (d): versus placebo
From the text: A Two-Cohort Randomized Phase II, Double-Blind, Parallel Group Study in Patients with Active Rheumatoid Arthritis Evaluating the Efficacy and Safety of Fenebrutinib Compared with Placebo and Adalimumab in Patients with an Inadequate Response to Previous Methotrexate Therapy (Cohort 1) and Compared with Placebo in Patients with an Inadequate Response or Intolerance to Previous TNF Therapy (Cohort 2)
This study was designed to evaluate the efficacy and safety of fenebrutinib compared with placebo (Cohorts 1 and 2) and compared with adalimumab (ADA) (Cohort 1), each in combination with methotrexate (MTX), in patients with moderate to severe active rheumatoid arthritis (RA). Specific objectives and corresponding endpoints for the study are outlined below.
The study was a multicenter, Phase II, randomized, double-blind, placebo-controlled, active comparator (Cohort 1 only), parallel-group, dose-ranging study to evaluate the efficacy and safety of fenebrutinib in patients with moderate to severe active RA and an inadequate response to previous MTX therapy (Cohort 1) or MTX and TNF therapy who may have also had exposure to no more than one non-TNF inhibitor biologic (Cohort 2). Moderate to severe active RA was defined by ≥6 tender/painful joints on motion (68 joint count) and ≥6 swollen joints (66 joint count) at both screening and Day 1 (randomization), as well as a high sensitivity C-reactive protein (hsCRP)≥0. 400 mg/dL for Cohort 1 a hsCRP≥0.650 mg/dL for Cohort 2 at screening.
The study enrolled 578 patients. […] After a screening period of up to 28 days, patients in both cohorts received blinded study drug (oral fenebrutinib or matching placebo) for 12 weeks, after which they had the option to enter an 8 week follow-up period or enroll into an open-label extension (OLE) study. In addition to study drug, patients in Cohort 1 were also treated with subcutaneous (SC) comparatory drug (ADA or placebo).
Cohort 1 treatment regimens. […]
Disease Activity Score 28. The DAS 28-4 (CRP) and the DAS 28-4 (ESR) are calculated as follows. Assessments: (i) Tender joint count of 28 joints (TJC28), square-root transformed; (ii) Swollen joint count of 28 joints (SJC28), square-root transformed; (iii) Acute-phase reactant (erythrocyte sedimentation rate [ESR mm/hr] or high sensitivity C-reactive protein [hsCRP mg/L]), log transformed; (iv) Patient's global assessment of disease activity on visual analog scale (0-100 mm).
The DAS 28 is calculated according to the following formulas: DAS 28(4)−ESR=0.56×SQRT(TJC28)+0.28SQRT(SJC28)+0.70×ln(ESR)+0.014×PtGA DAS 28(4)−CRP=0.56×SQRT(TJC28)+0.28SQRT(SJC28)+0.36×ln(CRP+1)+0.014×PtGA+0.96 • Total score: Range, 0.49-9.07 • Disease remission≤2.6 • Disease activity: Low≤3.2; Moderate d>3.2 and ≤5.1; High>5.1 (PtGA=patient's global assessment of disease activity; ln=natural logarithm; SQRT=square root)
ACR Assessments. The ACR's definition for calculating improvement in RA (ACR20) is calculated as a 20% improvement in tender and swollen joint counts and a 20% improvement in 3 of the 5 remaining ACR-core set measures: patient and physician global assessments, pain, disability, and an acute-phase reactant. Similarly, ACR50 and ACR70 are calculated with the respective percent improvements. The Sponsor, on the basis of the component parts, will calculate the ACR score.
The specific components of the ACR Assessments used in this study are as follows: Tender/Painful Joint Count (68), Swollen Joint Count (66), Patient's Assessment of Arthritis Pain, Patient's Global Assessment of Arthritis, Physician's Global Assessment of Arthritis, CRP and HAQ-DI.

Anti-dsDNA = test: SLE study biomarker: anti-dsDNA autoantibodies; conditions: patients positive at baseline (>30 IU/mL)
CCL4 = test: RA study biomarker: CCL4 (immunoassay)
Protocol: […] The biomarkers evaluated in this assessment were chemokine [C-C motif] ligand 4 (CCL4), IL-6, and TNF-like cytokine 1A (TL1A). Total IgM, IgG, rheumatoid factor IgM autoantibody (RF), CCL4, TL1A, IL-6, and anti-CCP autoantibody (ACPA IgG) levels were analyzed with immunoassays. CD19^+ B cells and CD3^+ T cells were measured by flow cytometry. The proportion of patients achieving an ACR50 response at week 12 and the change in DAS28 score by week 12 were assessed relative to seropositivity (RF and/or ACPA positive at baseline) or baseline levels of RF in both cohorts. To select which biomarkers to evaluate in this trial, BTK-dependent myeloid biomarkers were identified using peripheral blood CD14^+ monocytes stimulated with immune-complexes in the presence or absence of a BTK inhibitor. In brief, the expression levels of genes in human monocytes were assayed under conditions of no stimulation; with human serum albumin immune complex stimulation; with stimulation and a low concentration of a BTK inhibitor with similar characteristics to fenebrutinib; or with stimulation and a high concentration of the BTK inhibitor. […] Genes annotated with cytokine activity were selected. The color bar represents normalized gene expression.

Total IgG = test: SLE study biomarker: total IgG

## C[C@H]1CN(C2COC2)CCN1c1ccc(Nc2cc(-c3ccnc(N4CCn5c(cc6c5CC(C)(C)C6)C4=O)c3CO)cn(C)c2=O)nc1 [fenebrutinib, (S)-2-(3′-(hydroxymethyl)-1-methyl-5-((5-(2-methyl-4-(oxetan-3-yl)piperazin-1-yl)pyridin-2-yl)amino)-6-oxo-1,6-dihydro-[3,4′-bipyridin]-2′-yl)-7,7-dimethyl-2,3,4,6,7,8-hexahydro-1H-cyclopenta[4,5]pyrrolo[1,2-a]pyrazin-1-one]
CD19+ B cells; 150 mg QD
  CD19+ B cells, Median Change from Baseline at Week 48: −57.0* cells/μl
CD19+ B cells; 200 mg BID
  CD19+ B cells, Median Change from Baseline at Week 48: −57.5* cells/μl
[1]; Cohort 1, 50 mg QD
  DAS 28-3 (CRP) Adjusted Mean: −1.54
  ACR50 Responders: 7 (17.5%)
  ACR50 Weighted Difference vs Placebo: 8.00
  DAS 28-3 (CRP) Difference (d): −0.36
[1]; Cohort 1, 150 mg QD
  DAS 28-3 (CRP) Adjusted Mean: −1.74
  ACR50 Responders: 30 (27.5%)
  ACR50 Weighted Difference vs Placebo: 12.93
  DAS 28-3 (CRP) Difference (d): −0.57
Anti-dsDNA; 150 mg QD
  Anti-dsDNA, Median Change from Baseline at Week 48: −38.3* IU/ml
Anti-dsDNA; 200 mg BID
  Anti-dsDNA, Median Change from Baseline at Week 48: −75.7* IU/ml
CCL4; Cohort 1, 50 mg QD, Week 2
  CCL4 Reduction as % of Baseline: 78%*
CCL4; Cohort 1, 50 mg QD, Week 4
  CCL4 Reduction as % of Baseline: 84%*
CCL4; Cohort 1, 50 mg QD, Week 12
  CCL4 Reduction as % of Baseline: 78%*
CCL4; Cohort 1, 150 mg QD, Week 2
  CCL4 Reduction as % of Baseline: 73%*
CCL4; Cohort 1, 150 mg QD, Week 4
  CCL4 Reduction as % of Baseline: 79%*
CCL4; Cohort 1, 150 mg QD, Week 12
  CCL4 Reduction as % of Baseline: 86%*
CCL4; Cohort 1, 200 mg BID, Week 2
  CCL4 Reduction as % of Baseline: 71%*
CCL4; Cohort 1, 200 mg BID, Week 4
  CCL4 Reduction as % of Baseline: 74%*
CCL4; Cohort 1, 200 mg BID, Week 12
  CCL4 Reduction as % of Baseline: 76%*
CCL4; cohort 1, 200 mg twice daily, largest reduction
  CCL4 reduction relative to placebo: −28%
CCL4; cohorts 1 and 2, all doses, by week 1
  CCL4 levels compared to placebo: reduced CCL4 levels
Total IgG; 150 mg QD
  Total IgG, Median Change from Baseline at Week 48: −1.25* g/L
Total IgG; 200 mg BID
  Total IgG, Median Change from Baseline at Week 48: −1.56* g/L
